Reference: ChEMBL document CHEMBL4627327, “Antibacterial activity of singly and doubly modified salinomycin derivatives” (Bioorg Med Chem Lett, 2020)
≈ marks a conversion by molar mass, not a printed value. Calls of active or inactive are those of the source. The rule behind the calls is not given here.

Experiments:
Pseudomonas aeruginosa [1] = test: Antibacterial activity against Pseudomonas aeruginosa ATCC 15442 assessed as bacterial growth inhibition measured after 18 hrs by CLSI protocol based two-fold serial microdilution method; type: functional, organism-based
Pseudomonas aeruginosa [2] = test: Antibacterial activity against Pseudomonas aeruginosa ATCC 27853 assessed as bacterial growth inhibition measured after 18 hrs by CLSI protocol based two-fold serial microdilution method; type: functional, organism-based
Escherichia coli [3] = test: Antibacterial activity against Escherichia coli NCTC 8196 assessed as bacterial growth inhibition measured after 18 hrs by CLSI protocol based two-fold serial microdilution method; type: functional, organism-based
Escherichia coli [4] = test: Antibacterial activity against Escherichia coli ATCC 25922 assessed as bacterial growth inhibition measured after 18 hrs by CLSI protocol based two-fold serial microdilution method; type: functional, organism-based
[5] = system: Staphylococcus epidermidis; test: Antibacterial activity against methicillin-resistant Staphylococcus epidermidis isolate 574 assessed as bacterial growth inhibition measured after 18 hrs by CLSI protocol based two-fold serial microdilution method; type: functional; conditions: isolate 574, 18 h
[6] = system: Staphylococcus epidermidis; test: Antibacterial activity against methicillin-resistant Staphylococcus epidermidis isolate 602 assessed as bacterial growth inhibition measured after 18 hrs by CLSI protocol based two-fold serial microdilution method; type: functional; conditions: isolate 602, 18 h
[7] = system: Staphylococcus epidermidis; test: Antibacterial activity against methicillin-resistant Staphylococcus epidermidis isolate 603 assessed as bacterial growth inhibition measured after 18 hrs by CLSI protocol based two-fold serial microdilution method; type: functional; conditions: isolate 603, 18 h
[8] = system: Staphylococcus epidermidis; test: Antibacterial activity against methicillin-resistant Staphylococcus epidermidis isolate 609 assessed as bacterial growth inhibition measured after 18 hrs by CLSI protocol based two-fold serial microdilution method; type: functional; conditions: isolate 609, 18 h
[9] = system: Staphylococcus epidermidis; test: Antibacterial activity against methicillin-resistant Staphylococcus epidermidis isolate 610 assessed as bacterial growth inhibition measured after 18 hrs by CLSI protocol based two-fold serial microdilution method; type: functional; conditions: isolate 610, 18 h
[10] = system: Staphylococcus epidermidis; test: Antibacterial activity against methicillin-resistant Staphylococcus epidermidis isolate 654 assessed as bacterial growth inhibition measured after 18 hrs by CLSI protocol based two-fold serial microdilution method; type: functional; conditions: isolate 654, 18 h
[11] = system: Staphylococcus epidermidis; test: Antibacterial activity against methicillin-resistant Staphylococcus epidermidis isolate 660 assessed as bacterial growth inhibition measured after 18 hrs by CLSI protocol based two-fold serial microdilution method; type: functional; conditions: isolate 660, 18 h
Staphylococcus aureus [12] = test: Antibacterial activity against methicillin-resistant Staphylococcus aureus isolate 583 assessed as bacterial growth inhibition measured after 18 hrs by CLSI protocol based two-fold serial microdilution method; type: functional; conditions: isolate 583, 18 h
Staphylococcus aureus [13] = test: Antibacterial activity against methicillin-resistant Staphylococcus aureus isolate 584 assessed as bacterial growth inhibition measured after 18 hrs by CLSI protocol based two-fold serial microdilution method; type: functional; conditions: isolate 584, 18 h
Staphylococcus aureus [14] = test: Antibacterial activity against methicillin-resistant Staphylococcus aureus isolate 612 assessed as bacterial growth inhibition measured after 18 hrs by CLSI protocol based two-fold serial microdilution method; type: functional; conditions: isolate 612, 18 h
Staphylococcus aureus [15] = test: Antibacterial activity against methicillin-resistant Staphylococcus aureus isolate 620 assessed as bacterial growth inhibition measured after 18 hrs by CLSI protocol based two-fold serial microdilution method; type: functional; conditions: isolate 620, 18 h
Staphylococcus aureus [16] = test: Antibacterial activity against methicillin-resistant Staphylococcus aureus isolate 621 assessed as bacterial growth inhibition measured after 18 hrs by CLSI protocol based two-fold serial microdilution method; type: functional; conditions: isolate 621, 18 h
Staphylococcus aureus [17] = test: Antibacterial activity against methicillin-resistant Staphylococcus aureus isolate 750 assessed as bacterial growth inhibition measured after 18 hrs by CLSI protocol based two-fold serial microdilution method; type: functional; conditions: isolate 750, 18 h
Staphylococcus aureus [18] = test: Antibacterial activity against methicillin-resistant Staphylococcus aureus isolate 770 assessed as bacterial growth inhibition measured after 18 hrs by CLSI protocol based two-fold serial microdilution method; type: functional; conditions: isolate 770, 18 h
[19] = system: Staphylococcus epidermidis; test: Inhibition of biofilm formation in Staphylococcus epidermidis ATCC 35984 at 1 to 8 ug/ml measured after 24 hrs by crystal violet staining based assay; type: functional, organism-based
[20] = system: Staphylococcus epidermidis; test: Inhibition of biofilm formation in Staphylococcus epidermidis ATCC 12228 at 1 to 8 ug/ml measured after 24 hrs by crystal violet staining based assay; type: functional, organism-based
[21] = Genotoxicity in rec negative Bacillus subtilis M45 assessed as diameter of inhibition zone at 256 ug measured after 24 hrs by rec-assay; type: toxicity; conditions: in vivo
[22] = Genotoxicity in rec-positive Bacillus subtilis H17 assessed as diameter of inhibition zone at 256 ug measured after 24 hrs by rec-assay; type: toxicity; conditions: in vivo

SMILES: CC[C@@H](C(=O)[C@@H](C)[C@@H](O)[C@H](C)[C@@H]1O[C@@H]([C@@H](CC)C(=O)NCC(F)(F)F)CC[C@@H]1C)[C@H]1O[C@]2(C=CC(=O)[C@]3(CC[C@@](C)([C@H]4CC[C@](O)(CC)[C@H](C)O4)O3)O2)[C@H](C)C[C@@H]1C
- Activity (Pseudomonas aeruginosa [1]): inactive
- Activity (Pseudomonas aeruginosa [2]): inactive
- Activity (Escherichia coli [3]): inactive
- Activity (Escherichia coli [4]): inactive

SMILES: C#CCNC(=O)[C@H](CC)[C@H]1CC[C@H](C)[C@H]([C@@H](C)[C@H](O)[C@H](C)C(=O)[C@H](CC)[C@H]2O[C@]3(C=CC(=O)[C@]4(CC[C@@](C)([C@H]5CC[C@](O)(CC)[C@H](C)O5)O4)O3)[C@H](C)C[C@@H]2C)O1
- Activity (Pseudomonas aeruginosa [1]): inactive
- Activity (Pseudomonas aeruginosa [2]): inactive
- Activity (Escherichia coli [3]): inactive
- Activity (Escherichia coli [4]): inactive

SMILES: CC[C@@H](C(=O)[C@@H](C)[C@@H](O)[C@H](C)[C@@H]1O[C@@H]([C@@H](CC)C(=O)NCCc2ccc(F)cc2)CC[C@@H]1C)[C@H]1O[C@]2(C=CC(=O)[C@]3(CC[C@@](C)([C@H]4CC[C@](O)(CC)[C@H](C)O4)O3)O2)[C@H](C)C[C@@H]1C
- Activity (Pseudomonas aeruginosa [1]): inactive
- Activity (Pseudomonas aeruginosa [2]): inactive
- Activity (Escherichia coli [3]): inactive
- Activity (Escherichia coli [4]): inactive

SMILES: CC[C@@H](C(=O)[C@@H](C)[C@@H](O)[C@H](C)[C@@H]1O[C@@H]([C@@H](CC)C(=O)OCC(F)(F)F)CC[C@@H]1C)[C@H]1O[C@]2(C=CC(=O)[C@]3(CC[C@@](C)([C@H]4CC[C@](O)(CC)[C@H](C)O4)O3)O2)[C@H](C)C[C@@H]1C
- Activity (Pseudomonas aeruginosa [1]): inactive
- Activity (Pseudomonas aeruginosa [2]): inactive
- Activity (Escherichia coli [3]): inactive
- Activity (Escherichia coli [4]): inactive

SMILES: CC[C@@H](C(=O)[C@@H](C)[C@@H](O)[C@H](C)[C@@H]1O[C@@H]([C@@H](CC)C(=O)OCC(F)(F)F)CC[C@@H]1C)[C@H]1O[C@]2(C=C[C@@H](O)[C@]3(CC[C@@](C)([C@H]4CC[C@](O)(CC)[C@H](C)O4)O3)O2)[C@H](C)C[C@@H]1C
- Activity (Pseudomonas aeruginosa [1]): inactive
- Activity (Pseudomonas aeruginosa [2]): inactive
- Activity (Escherichia coli [3]): inactive
- Activity (Escherichia coli [4]): inactive

SMILES: C#CCOC(=O)[C@H](CC)[C@H]1CC[C@H](C)[C@H]([C@@H](C)[C@H](O)[C@H](C)C(=O)[C@H](CC)[C@H]2O[C@]3(C=CC(=O)[C@]4(CC[C@@](C)([C@H]5CC[C@](O)(CC)[C@H](C)O5)O4)O3)[C@H](C)C[C@@H]2C)O1
- Activity (Pseudomonas aeruginosa [1]): inactive
- Activity (Pseudomonas aeruginosa [2]): inactive
- Activity (Escherichia coli [3]): inactive
- Activity (Escherichia coli [4]): inactive

SMILES: CC[C@@H](C(=O)[C@@H](C)[C@@H](O)[C@H](C)[C@@H]1O[C@@H]([C@@H](CC)C(=O)NCCc2ccc(F)cc2)CC[C@@H]1C)[C@H]1O[C@]2(C=C[C@@H](O)[C@]3(CC[C@@](C)([C@H]4CC[C@](O)(CC)[C@H](C)O4)O3)O2)[C@H](C)C[C@@H]1C
- Activity (Pseudomonas aeruginosa [1]): inactive
- Activity (Pseudomonas aeruginosa [2]): inactive
- Activity (Escherichia coli [3]): inactive
- Activity (Escherichia coli [4]): inactive
- MIC [5]: 18.4 µM (≈ 16 µg/mL)
- MIC [6]: 36.7 µM (≈ 32 µg/mL)
- MIC [7]: 18.4 µM (≈ 16 µg/mL)
- MIC [8]: 18.4 µM (≈ 16 µg/mL)
- MIC [9]: 36.7 µM (≈ 32 µg/mL)
- MIC [10]: 36.7 µM (≈ 32 µg/mL)
- MIC [11]: 36.7 µM (≈ 32 µg/mL)
- MIC (Staphylococcus aureus [12]): 18.4 µM (≈ 16 µg/mL)
- MIC (Staphylococcus aureus [13]): 18.4 µM (≈ 16 µg/mL)
- MIC (Staphylococcus aureus [14]): 36.7 µM (≈ 32 µg/mL)
- MIC (Staphylococcus aureus [15]): 18.4 µM (≈ 16 µg/mL)
- MIC (Staphylococcus aureus [16]): 18.4 µM (≈ 16 µg/mL)
- MIC (Staphylococcus aureus [17]): 18.4 µM (≈ 16 µg/mL)
- MIC (Staphylococcus aureus [18]): 36.7 µM (≈ 32 µg/mL)
- inhibition [19]: Active
- inhibition [20]: Active
- diameter of the inhibition zone (DIZ) [21]: 27 mm
- diameter of the inhibition zone (DIZ) [22]: 20 mm
